Data on 4 compounds can be found in US20190298718A1, “DOSING REGIMEN” (Cyclacel Limited, priority 2017, published 2019).

Read-outs that look alike come from different tables or passages of the source.

Data set [1] relates to cell line that is resistant to cytarabine. The note with it: cited from earlier work.
The test system of data set [2] is acute myeloid leukemia (AML). The data set is classed as in vivo, human. Here is the method:
WBC count can be determined, by any suitable institutional standard protocol. By way of example, suitable methods are described in Blumenreich [Reference 12] or Shafer [Reference 13], the contents of which are incorporated by reference.
SWOG classification was determined according to the criteria set out in Table 6 (Slovak et al, Reference 1; the contents of which are incorporated by reference). Cytogenetic testing can be carried out on peripheral blood, for example, in accordance with the standard methodology set forth in Slovak et al [Reference 1] or on bone marrow. Karyotyping or routine cytogenetic analysis involves the examination of chromosomes to identify structural abnormalities. Conventional cytogenetics (karyotyping) is the standard cytogenetic analysis for identifying gross chromosomal abnormalities: aneuploidies & structural (gain/loss, rearrangement). Chromosomes of a dividing human cell can be analysed clearly in white blood cells, specifically T lymphocytes, which are easily collected from blood. Cells from other tissues such as bone marrow, amniotic fluid, and other tissues can also be cultured for cytogenetic analysis. Cells from bone marrow are cultured for several days. Chromosomes in the growing and dividing cells are then fixed, spread on microscope slides, and stained to allow each of the chromosomes to be individually identified. Cytogenetic study was performed using the standard G-banding method (Reference 22, the contents of which are incorporated by reference). […] Findings based on the FISH technique were used as considered supportive information (FISH analysis is based on probes directed to specific chromosomal regions (molecular cytogenetics)) (Reference 22).

The subject of another data set is colon cancer. The note with it: model of colon cancer; cited from earlier work.
For data set [3] the following is noted: phase I, patients with a variety of cancers; cited from earlier work.
Another data set has as its system AML cell lines. The experiment in a line: Combination of CNDAC with hypomethylating agents in AML cell lines. The data set is classed as cell-based. The following applies: more apparent if cells are treated with hypomethylating agents first. Here is the method: Previous studies by the applicant have shown that in AML cell lines, the active metabolite of sapacitabine, CNDAC, is synergistic with hypomethylating agents and the synergy is more apparent if cells are treated with hypomethylating agents first. The present invention relates to the identification of new and previously undefined subgroups of AML patients for which treatment with an alternating regimen of sapacitabine and decitabine is particularly effective.

Where [4] appears, read: Antecedent MDS/MPN No and WBC ≥10,000.
Where [5] appears, read: Antecedent MDS/MPN Yes and WBC <10,000.
The mark [6] stands for this setting: SWOG Not unfavourable and WBC <10,000.
Setting [7] is: SWOG Unfavourable and WBC ≥10,000.

For the compound `Nc1ccn([C@@H]2O[C@H](CO)[C@@H](O)[C@@H]2O)c(=O)n1` [cytarabine], the IC50 (as a rule, the midpoint of a concentration-inhibition curve) was 0.55 µM in data set [1] (after 5-azacitidine (upregulation of dCK)) and 12.5 µM in data set [1] (before 5-azacitidine).
As to `Nc1ncn([C@H]2C[C@H](O)[C@@H](CO)O2)c(=O)n1` [Decitabine, 4-amino-1-(2-deoxy-β-D-erythro-pentofuranosyl)-1,3,5-triazin-2(1H)-one], the “1-year survival (%)” value in data set [2] (setting [4]) is reported as 36.7%; in data set [2] (setting [5]), 27.5%; in data set [2] (Antecedent MDS/MPN: No), 35.5%; in data set [2] (Antecedent MDS/MPN: Yes) it was 32.9%; in data set [2] (setting [6]), 31.8%; in data set [2] (setting [7]), 30.0%. Further, the “1-year survival (%)” value is on record as 35.9% in data set [2] (SWOG category Not Unfavourable), 33.0% in data set [2] (SWOG category Unfavourable), 32.9% in data set [2] (patients with <10,000 WBC) and 38.5% in data set [2] (patients with ≥10,000 WBC). Moreover, the “Median overall survival months” value in data set [2] (setting [4]) is 5.5 months; in data set [2] (setting [5]) it was 4.9 months; in data set [2] (Antecedent MDS/MPN: No) it was 6.7 months; in data set [2] (Antecedent MDS/MPN: Yes) it was 5.0 months; in data set [2] (setting [6]), 5.6 months; in data set [2] (setting [7]), 3.0 months. The “Median overall survival months” value in data set [2] (SWOG category Not Unfavourable) is 5.7 months; in data set [2] (SWOG category Unfavourable) it was 5.7 months; in data set [2] (patients with <10,000 WBC), 5.8 months; in data set [2] (patients with ≥10,000 WBC) it was 5.5 months. Also, the “CR rate (%)” value came to 2.5% in data set [2] (setting [5]); 5.7% in data set [2] (Antecedent MDS/MPN: Yes); 5.7% in data set [2] (setting [6]); 0% in data set [2] (setting [7]); 9.6% in data set [2] (SWOG category Unfavourable); 8.6% in data set [2] (patients with <10,000 WBC). The “CR median duration, months” value in data set [2] (Antecedent MDS/MPN: Yes) is listed as 7.1 months. In addition, in data set [2] (all randomized patients (n=241 per arm)), the Median overall survival is recorded as 5.7 months. Further, in data set [2] (patients aged 80 and over with <10,000 WBC), the “Patients aged 80 and over, median overall survival, months” value is recorded as 4.2 months.
As to `CCCCCCCCCCCCCCCC(=O)Nc1ccn([C@@H]2O[C@H](CO)[C@@H](O)[C@@H]2C#N)c(=O)n1` [(I), 1-(2-C-cyano-2-deoxy-β-D-arabino-pentofuranosyl)-N^4-palmitoyl cytosine], in the data set on colon cancer, the anticancer activity entry is listed as “strong”; the “increasing survival and preventing the spread of colon cancer metastases to the liver, compared with gemcitabine or 5-FU” value is “superior”. Moreover, in data set [3], the dose-limiting toxicity entry is “myelosuppression” and the tolerability entry is “well tolerated”.
For `N#C[C@H]1[C@H](O)[C@@H](CO)O[C@H]1n1ccc(N)nc1=O` [CNDAC, 2′-C-cyano-2′-deoxy-1-β-D-arabino-pentofuranosyl cytosine], the “interaction with hypomethylating agents” value in the data set on AML cell lines is recorded as “synergistic”.
